Reference: patent US12516039B2, “N-linked isoquinoline amides as LRRK2 inhibitors, pharmaceutical compositions, and uses thereof” (Merck Sharp & Dohme LLC, priority 2020, dated 2026)

Biological target: T1, GST-tagged truncated human mutant G2019S LRRK2 (Homo sapiens, UniProt Q5S007, G2019S)
T1 construct: GST-tagged truncated human mutant G2019S LRRK2; purchased Life Technologies Corporation (Carlsbad, CA)
Experiment: LRRK2 G2019S Km ATP LanthaScreen assay
Type: biochemical
Settings: 134 μM ATP (Km ATP), LRRKtide substrate, mean of several tests, read-out: LRRK2 pIC50 (converted)
In short: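 IC50 values are means of repeat runs, fitted with a 4-parameter logistic to the 520/495 nm TR-FRET ratio from a Tb-labeled anti-phospho-LRRKtide antibody added with EDTA. Reactions ran 90 min at room temperature at Km ATP (134 μM) with fluorescein-LRRKtide, after 15-min compound preincubation with truncated GST-tagged G2019S LRRK2.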

T1 sequence (Q5S007 970-2527 G2019S limits assumed): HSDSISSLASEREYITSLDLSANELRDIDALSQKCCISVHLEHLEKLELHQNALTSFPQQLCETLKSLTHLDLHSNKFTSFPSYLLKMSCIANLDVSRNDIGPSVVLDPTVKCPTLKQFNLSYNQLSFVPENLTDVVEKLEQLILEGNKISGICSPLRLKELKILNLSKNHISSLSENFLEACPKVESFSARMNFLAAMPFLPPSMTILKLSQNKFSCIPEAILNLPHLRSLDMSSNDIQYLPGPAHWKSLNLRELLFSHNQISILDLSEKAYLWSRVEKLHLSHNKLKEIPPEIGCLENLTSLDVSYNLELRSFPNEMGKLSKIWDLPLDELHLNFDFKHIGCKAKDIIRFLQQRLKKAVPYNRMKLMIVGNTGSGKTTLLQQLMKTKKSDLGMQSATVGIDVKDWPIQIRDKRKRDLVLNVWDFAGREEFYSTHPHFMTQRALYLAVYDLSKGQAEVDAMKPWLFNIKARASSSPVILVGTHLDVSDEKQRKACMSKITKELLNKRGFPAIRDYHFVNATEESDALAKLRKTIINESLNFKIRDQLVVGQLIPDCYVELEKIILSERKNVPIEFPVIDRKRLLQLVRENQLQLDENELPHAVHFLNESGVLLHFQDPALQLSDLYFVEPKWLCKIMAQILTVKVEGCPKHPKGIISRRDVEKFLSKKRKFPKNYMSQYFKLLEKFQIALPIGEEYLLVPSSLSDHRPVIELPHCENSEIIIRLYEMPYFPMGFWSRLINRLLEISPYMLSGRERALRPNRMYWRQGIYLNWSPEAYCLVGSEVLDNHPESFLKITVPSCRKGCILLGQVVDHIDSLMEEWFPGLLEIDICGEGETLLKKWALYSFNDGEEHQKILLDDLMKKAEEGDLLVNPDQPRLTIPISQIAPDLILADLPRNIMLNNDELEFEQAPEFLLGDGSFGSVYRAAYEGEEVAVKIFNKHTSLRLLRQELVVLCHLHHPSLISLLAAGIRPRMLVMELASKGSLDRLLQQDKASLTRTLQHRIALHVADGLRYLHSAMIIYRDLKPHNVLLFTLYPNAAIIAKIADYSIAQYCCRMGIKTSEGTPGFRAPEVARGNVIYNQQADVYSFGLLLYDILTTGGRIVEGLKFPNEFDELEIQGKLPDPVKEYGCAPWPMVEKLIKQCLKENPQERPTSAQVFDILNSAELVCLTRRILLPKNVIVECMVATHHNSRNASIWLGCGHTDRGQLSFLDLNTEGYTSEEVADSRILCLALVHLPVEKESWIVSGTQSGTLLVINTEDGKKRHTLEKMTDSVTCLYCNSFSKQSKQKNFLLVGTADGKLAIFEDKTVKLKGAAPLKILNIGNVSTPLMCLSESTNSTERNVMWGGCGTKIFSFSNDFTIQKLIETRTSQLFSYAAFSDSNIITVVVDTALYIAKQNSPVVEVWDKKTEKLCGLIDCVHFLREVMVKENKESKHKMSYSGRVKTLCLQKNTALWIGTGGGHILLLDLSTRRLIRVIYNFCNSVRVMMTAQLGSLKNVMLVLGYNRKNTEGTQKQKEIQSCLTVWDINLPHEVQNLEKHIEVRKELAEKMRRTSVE

| Compound | IC50 [nM] |
| --- | --- |
| CC1(N2CCN(c3cc4cc(NC(=O)C5CC5C(F)F)ncc4cc3Cl)CC2)COCC1F (single isomer, unassigned) [Ex-10.76, (1R,2R or 1S,2S)-N-[7-chloro-6-[4-((3R,4R or 3S,4S)-4-fluoro-3-methyl-tetrahydrofuran-3-yl)piperazin-1-yl]-3-isoquinolyl]-2-(difluoromethyl)cyclopropanecarboxamide] | 0.0813 |
| CC1(N2CCN(c3cc4cc(NC(=O)C5CC5C(F)F)ncc4cc3Cl)CC2)COCC1F (single isomer, unassigned) [Ex-10.77, (1R,2R or 1S,2S)-N-[7-chloro-6-[4-((3R,4R or 3S,4S)-4-fluoro-3-methyl-tetrahydrofuran-3-yl)piperazin-1-yl]-3-isoquinolyl]-2-(difluoromethyl)cyclopropanecarboxamide] | 0.0813 |
| CC1(N2CCN(c3cc4cc(NC(=O)C5CC5C(F)F)ncc4cc3Cl)CC2)COCC1F (single isomer, unassigned) [Ex-10.78, (1R,2R or 1S,2S)-N-[7-chloro-6-[4-((3R,4R or 3S,4S)-4-fluoro-3-methyl-tetrahydrofuran-3-yl)piperazin-1-yl]-3-isoquinolyl]-2-(difluoromethyl)cyclopropanecarboxamide] | 0.0813 |
| CC1(N2CCN(c3cc4cc(NC(=O)C5CC56CC6)ncc4cc3Cl)CC2)COCC1F (single isomer, unassigned) [Ex-10.79, (R or S)-N-[7-chloro-6-[4-((3R,4R or 3S,4S)-4-fluoro-3-methyl-tetrahydrofuran-3-yl)piperazin-1-yl]-3-isoquinolyl]spiro[2.2]pentane-2-carboxamide] | 0.0813 |
| CC1(N2CCN(c3cc4cc(NC(=O)C5CC56CC6)ncc4cc3Cl)CC2)COCC1F (single isomer, unassigned) [Ex-10.80, (R or S)-N-[7-chloro-6-[4-((3R,4R or 3S,4S)-4-fluoro-3-methyl-tetrahydrofuran-3-yl)piperazin-1-yl]-3-isoquinolyl]spiro[2.2]pentane-2-carboxamide] | 0.123 |
| CC1(C2CCOC2)CC1C(=O)Nc1cc2cc(N3CCN(C4(C)COCC4O)CC3)c(Cl)cc2cn1 (single isomer, unassigned) [Ex-10.81, (1R,2R or 1S,2S, or 1R,2S, or 1S,2R)-N-[7-chloro-6-[4-((3R,4R or 3S,4S)-4-hydroxy-3-methyl-tetrahydrofuran-3-yl)piperazin-1-yl]-3-isoquinolyl]-2-methyl-2-tetrahydrofuran-3-yl-cyclopropanecarboxamide] | 0.0813 |
| CC1(C2CCOC2)CC1C(=O)Nc1cc2cc(N3CCN(C4(C)COCC4O)CC3)c(Cl)cc2cn1 (single isomer, unassigned) [Ex-10.82, (1R,2R or 1S,2S, or 1R,2S, or 1S,2R)-N-[7-chloro-6-[4-((3R,4R or 3S,4S)-4-hydroxy-3-methyl-tetrahydrofuran-3-yl)piperazin-1-yl]-3-isoquinolyl]-2-methyl-2-tetrahydrofuran-3-yl-cyclopropanecarboxamide] | 0.1 |
| CC1(C2CCOC2)CC1C(=O)Nc1cc2cc(N3CCN(C4(C)COCC4O)CC3)c(Cl)cc2cn1 (single isomer, unassigned) [Ex-10.83, (1R,2R or 1S,2S, or 1R,2S, or 1S,2R)-N-[7-chloro-6-[4-((3R,4R or 3S,4S)-4-hydroxy-3-methyl-tetrahydrofuran-3-yl)piperazin-1-yl]-3-isoquinolyl]-2-methyl-2-tetrahydrofuran-3-yl-cyclopropanecarboxamide] | 0.525 |
| CC1(C2CCOC2)CC1C(=O)Nc1cc2cc(N3CCN(C4(C)COCC4O)CC3)c(Cl)cc2cn1 (single isomer, unassigned) [Ex-10.84, (1R,2R or 1S,2S, or 1R,2S, or 1S,2R)-N-[7-chloro-6-[4-((3R,4R or 3S,4S)-4-hydroxy-3-methyl-tetrahydrofuran-3-yl)piperazin-1-yl]-3-isoquinolyl]-2-methyl-2-tetrahydrofuran-3-yl-cyclopropanecarboxamide] | 0.214 |
